Experimental data taken from PubChem BioAssay AID1259407 (Chemical Carcinogenesis Research Information System (CCRIS), 2018).
The source made the active and inactive calls. The rule behind the calls is not given here.

Tested on: CCRIS mutagenicity, Ames/micronucleus/aberration tests
Experiment: CCRIS mutagenicity studies

For `COC(=O)Nc1nc2ccccc2[nH]1`, the mutagenic call (Test System: AMES SALMONELLA TYPHIMURIUM, Strain/Indicator: TA100, Metabolic Activation: RAT, LIVER, S-9, PHENOBARBITAL AND BETA-NAPHTHOFLAVONE, Method: STANDARD PLATE) was “inactive; negative”, the mutagenic call (Test System: AMES SALMONELLA TYPHIMURIUM, Strain/Indicator: TA100, Metabolic Activation: RAT, LIVER, S-9, PHENOBARBITONE, Method: PREINCUBATION) was “inactive; negative” and the mutagenic call (Test System: AMES SALMONELLA TYPHIMURIUM, Strain/Indicator: TA100, Metabolic Activation: S-9, Method: STANDARD PLATE) was “inactive; negative”. The mutagenic call (Test System: AMES SALMONELLA TYPHIMURIUM, Strain/Indicator: TA102, Metabolic Activation: NONE, Method: PREINCUBATION) was “inactive; negative”, the mutagenic call (Test System: AMES SALMONELLA TYPHIMURIUM, Strain/Indicator: TA102, Metabolic Activation: NONE, Method: STANDARD PLATE) was “inactive; negative” and the mutagenic call (Test System: AMES SALMONELLA TYPHIMURIUM, Strain/Indicator: TA102, Metabolic Activation: RAT, LIVER, S-9, PHENOBARBITAL AND BETA-NAPHTHOFLAVONE, Method: PREINCUBATION) was “inactive; negative”. For the same compound, the mutagenic call (Test System: AMES SALMONELLA TYPHIMURIUM, Strain/Indicator: TA102, Metabolic Activation: RAT, LIVER, S-9, PHENOBARBITAL AND BETA-NAPHTHOFLAVONE, Method: STANDARD PLATE) was “inactive; negative”, the mutagenic call (Test System: AMES SALMONELLA TYPHIMURIUM, Strain/Indicator: TA1535, Metabolic Activation: HAMSTER, LIVER, S-9, AROCLOR 1254 (10%), Method: PREINCUBATION) was “inactive; negative” and the mutagenic call (Test System: AMES SALMONELLA TYPHIMURIUM, Strain/Indicator: TA1535, Metabolic Activation: NONE, Method: PREINCUBATION) was “inactive; negative”. The mutagenic call (Test System: AMES SALMONELLA TYPHIMURIUM, Strain/Indicator: TA1535, Metabolic Activation: PLANT, HOMOGENATE, S-14, Method: STANDARD PLATE) was “inactive; negative”, the mutagenic call (Test System: AMES SALMONELLA TYPHIMURIUM, Strain/Indicator: TA1535, Metabolic Activation: RAT, LIVER, S-9, AROCLOR 1254 (10%), Method: PREINCUBATION) was “inactive; negative” and the mutagenic call (Test System: AMES SALMONELLA TYPHIMURIUM, Strain/Indicator: TA1535, Metabolic Activation: RAT, LIVER, S-9, AROCLOR 1254, Method: STANDARD PLATE) was “inactive; negative”. For the same compound, the mutagenic call (Test System: AMES SALMONELLA TYPHIMURIUM, Strain/Indicator: TA1535, Metabolic Activation: RAT, LIVER, S-9, PHENOBARBITAL AND BETA-NAPHTHOFLAVONE, Method: PREINCUBATION) was “inactive; negative”, the mutagenic call (Test System: AMES SALMONELLA TYPHIMURIUM, Strain/Indicator: TA1535, Metabolic Activation: RAT, LIVER, S-9, PHENOBARBITAL AND BETA-NAPHTHOFLAVONE, Method: STANDARD PLATE) was “inactive; negative” and the mutagenic call (Test System: AMES SALMONELLA TYPHIMURIUM, Strain/Indicator: TA1535, Metabolic Activation: S-9, Method: STANDARD PLATE) was “inactive; negative”. The mutagenic call (Test System: AMES SALMONELLA TYPHIMURIUM, Strain/Indicator: TA1537, Metabolic Activation: HAMSTER, LIVER, S-9, AROCLOR 1254 (10%), Method: PREINCUBATION) was “active; positive”, the mutagenic call (Test System: AMES SALMONELLA TYPHIMURIUM, Strain/Indicator: TA1537, Metabolic Activation: NONE, Method: PREINCUBATION) was “inactive; negative” and the mutagenic call (Test System: AMES SALMONELLA TYPHIMURIUM, Strain/Indicator: TA1537, Metabolic Activation: RAT, LIVER, S-9, AROCLOR 1254 (10%), Method: PREINCUBATION) was “active; positive”. For the same compound, the mutagenic call (Test System: AMES SALMONELLA TYPHIMURIUM, Strain/Indicator: TA1537, Metabolic Activation: RAT, LIVER, S-9, AROCLOR 1254, Method: STANDARD PLATE) was “inactive; negative”, the mutagenic call (Test System: AMES SALMONELLA TYPHIMURIUM, Strain/Indicator: TA1537, Metabolic Activation: RAT, LIVER, S-9, PHENOBARBITAL AND BETA-NAPHTHOFLAVONE, Method: PREINCUBATION) was “active; positive” and the mutagenic call (Test System: AMES SALMONELLA TYPHIMURIUM, Strain/Indicator: TA1537, Metabolic Activation: RAT, LIVER, S-9, PHENOBARBITAL AND BETA-NAPHTHOFLAVONE, Method: STANDARD PLATE) was “inactive; negative”. For the same compound, the mutagenic call (Test System: AMES SALMONELLA TYPHIMURIUM, Strain/Indicator: TA1538, Metabolic Activation: NONE, Method: PREINCUBATION) was “inactive; negative”, the mutagenic call (Test System: AMES SALMONELLA TYPHIMURIUM, Strain/Indicator: TA1538, Metabolic Activation: NONE, Method: STANDARD PLATE) was “inactive; negative” and the mutagenic call (Test System: AMES SALMONELLA TYPHIMURIUM, Strain/Indicator: TA1538, Metabolic Activation: RAT, LIVER, S-9, AROCLOR 1254, Method: STANDARD PLATE) was “inactive; negative”. The mutagenic call (Test System: AMES SALMONELLA TYPHIMURIUM, Strain/Indicator: TA1538, Metabolic Activation: RAT, LIVER, S-9, PHENOBARBITAL AND BETA-NAPHTHOFLAVONE, Method: PREINCUBATION) was “active; positive”, the mutagenic call (Test System: AMES SALMONELLA TYPHIMURIUM, Strain/Indicator: TA1538, Metabolic Activation: RAT, LIVER, S-9, PHENOBARBITAL AND BETA-NAPHTHOFLAVONE, Method: STANDARD PLATE) was “active; positive” and the mutagenic call (Test System: Mouse lymphoma, Strain/Indicator: L5178Y (tk+/tk-)/Trifluorothymidine, Metabolic Activation: None, Method: Microtiter) was “active; positive”.
